Assay results taken from patent US20240368534A1 (priority 2021, published 2024).
Like-named read-outs stand apart in the source and are kept apart here.

Tests used:
[1] = test system: transcription factor DmpR; format: cell-based, Pseudomonas spp. CF600
[2] = test system: OPH-E. coli/S. oneidensis mixtures; format: cell-based
[3] = test system: OPH-E. coli/S. oneidensis mixtures; format: cell-based; conditions: for anodic current: 20 μM; for charge produced / charge relative to cell only baseline: at 24 hours
[4] = test system: transcription factor DmpR; format: cell-based, Pseudomonas spp. CF600; remark: listed apart in the source
engineered S. oneidensis = format: cell-based
[5] = molecular target: T1, organophosphate hydrolase (OPH) displayed on E. coli (Brevundimonas diminuta, UniProt P0A434); format: biochemical, Pseudomonas diminuta
T1 construct: expressed in transfected cells; host or cells: E. coli BL21 (DE3) carrying pSKB3-INPNC-OPH, IPTG-induced, lyophilized whole cells

SMILES: Cc1ccc(O)c(O)c1 [4-methylcatechol]
- GFP fluorescence response [1]: very low fluorescence

SMILES: NCCc1ccc(O)c(O)c1 [dopamine]
- GFP fluorescence response [1]: very low fluorescence

SMILES: Oc1ccc(O)cc1 [hydroquinone]
- GFP fluorescence response [1]: very low fluorescence

SMILES: CCOC(=O)CC(SP(=O)(OC)OC)C(=O)OCC (stereo not shown) [malaoxon]
- GFP expression [2]: GFP expression was not observed
- total charge accumulated [3]: 0.068±0.006 mA*h
- anodic current [3]: no significant current

SMILES: O=[N+]([O-])c1ccc(O)cc1 [p-NP, p-nitrophenol]
- increase in GFP fluorescence [1]: 54 fold
- lowest concentration at which fluorescence observed [1]: 6.25 µM
- GFP expression response [4]: logarithmic increase in GFP expression
- anodic current (engineered S. oneidensis): continuous increase in anodic current
- total charge (engineered S. oneidensis): 1.32±0.48 mA*h

SMILES: COP(=O)(OC)Oc1ccc([N+](=O)[O-])cc1 [paraoxon-methyl]
- increase in GFP fluorescence [2]: 48 fold
- degradation rate [5]: significantly enhanced degradation rates
- rate of p-NP production [5]: very slow rates of p-NP production
- total charge accumulated [3]: 1.03±0.31 mA*h
- anodic current [3]: increase in anodic current

SMILES: CCOP(=O)(OCC)Oc1ccc([N+](=O)[O-])cc1 [paraoxon]
- GFP fluorescence response [1]: No such increase in the fluorescence
- anodic current (engineered S. oneidensis): did not yield a considerable current
- total charge (engineered S. oneidensis): 0.21±0.02 mA*h
- Km ([5]; read-out: Michaelis constant (KM)): 198 ± 81.7 µM
- charge accumulation [3]: 0.140±0.02 mA*h
- limit of detection of the sensor [3]: 0.15 µM
- total charge accumulated [3]: 1.64±0.18 mA*h
- charge produced ([3]; 1 μM): 0.101±0.017 mA*h
- charge relative to cell only baseline ([3]; 1 μM): 1.7 times
- charge produced ([3]; 5 μM): 0.180±0.018 mA*h
- charge relative to cell only baseline ([3]; 5 μM): approximately three times higher
- anodic current [3]: increase in anodic current

SMILES: CCOP(=S)(OCC)Oc1ccc([N+](=O)[O-])cc1 [parathion]
- increase in GFP fluorescence [2]: 58 fold
- total charge accumulated [3]: 1.04±0.66 mA*h
- anodic current [3]: increase in anodic current
